Measurements reported in patent US11186592B2, “Thiazolopyridine derivatives as adenosine receptor antagonists” (MERCK PATENT GMBH, priority 2017, dated 2021).

Key:
Format in all cases: cell-based
human A3 receptor = biological target: T1, human A3 receptor (Homo sapiens, UniProt P0DMS8); experiment: cAMP (HTRF) functional assay, recombinant CHO cells expressing human A3 receptor, forskolin + agonist IB-MECA
T1 construct: expressed in transfected cells; host or cells: CHO
T1 sequence (P0DMS8 1-318): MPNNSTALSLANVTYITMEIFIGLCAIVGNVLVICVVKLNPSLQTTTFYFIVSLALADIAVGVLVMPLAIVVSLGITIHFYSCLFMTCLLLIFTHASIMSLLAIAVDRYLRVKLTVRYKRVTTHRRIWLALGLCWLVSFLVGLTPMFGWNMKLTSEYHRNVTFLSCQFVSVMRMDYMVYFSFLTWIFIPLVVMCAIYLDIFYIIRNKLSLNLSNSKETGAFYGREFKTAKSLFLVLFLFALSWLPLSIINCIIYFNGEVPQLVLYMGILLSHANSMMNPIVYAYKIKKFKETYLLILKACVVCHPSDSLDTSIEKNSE
Method: (§1) The functional activities of human A2A, A2B, A1 and A3 receptors were determined by quantification of cAMP, being the second messenger for adenosine receptors.
(§2) For human A1 and A3 receptors, recombinant CHO cells, expressing either A1 or A3-receptor, were used. As both receptors couple to Gi proteins, the assay protocol was adapted:
(§3) Cells were seeded into 384-well plates, forskolin, test compounds and agonists (CPA for A1- and IB-MECA for A3-receptor) were added. After 30 min incubation, HTRF reagents (cAMP dynamic 2, Cis Bio) were added and the cellular cAMP levels were determined using the ENVISION (Perkin Elmer) plate reader. Obtained raw data were normalized against the inhibitor control and the neural control (DMSO) and the normalized data were fitted using GeneData software.

human A1 receptor = biological target: T2, human A1 receptor (Homo sapiens, UniProt P30542); experiment: cAMP (HTRF) functional assay, recombinant CHO cells expressing human A1 receptor, forskolin + agonist CPA
T2 construct: expressed in transfected cells; host or cells: CHO
T2 sequence (P30542 1-326): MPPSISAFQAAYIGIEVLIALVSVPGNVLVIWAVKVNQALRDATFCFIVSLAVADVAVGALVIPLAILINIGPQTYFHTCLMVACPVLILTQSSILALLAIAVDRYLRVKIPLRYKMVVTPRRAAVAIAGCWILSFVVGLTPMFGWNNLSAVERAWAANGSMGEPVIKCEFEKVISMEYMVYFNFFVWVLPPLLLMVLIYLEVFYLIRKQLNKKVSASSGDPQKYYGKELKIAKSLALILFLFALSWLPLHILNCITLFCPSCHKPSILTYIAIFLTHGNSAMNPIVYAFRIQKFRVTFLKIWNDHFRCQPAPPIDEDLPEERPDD
Method: as §1, §2, §3

human A2A receptor = biological target: T3, human A2A receptor (Homo sapiens, UniProt P29274); experiment: cAMP (HTRF) functional assay, recombinant HEK293 cells expressing human A2A receptor, agonist NECA
T3 construct: expressed in transfected cells; host or cells: HEK293
T3 sequence (P29274 whole entry): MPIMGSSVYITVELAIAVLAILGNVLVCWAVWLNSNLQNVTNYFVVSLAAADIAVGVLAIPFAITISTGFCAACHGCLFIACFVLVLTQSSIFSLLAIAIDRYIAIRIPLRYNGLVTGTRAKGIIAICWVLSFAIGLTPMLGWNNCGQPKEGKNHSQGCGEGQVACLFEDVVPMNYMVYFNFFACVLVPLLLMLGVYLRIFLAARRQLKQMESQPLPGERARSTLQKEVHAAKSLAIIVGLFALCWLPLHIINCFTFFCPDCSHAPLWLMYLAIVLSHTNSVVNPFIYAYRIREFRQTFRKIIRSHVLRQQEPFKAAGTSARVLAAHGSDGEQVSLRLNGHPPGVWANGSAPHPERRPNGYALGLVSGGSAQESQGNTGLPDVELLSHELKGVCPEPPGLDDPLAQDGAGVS
Method: as §1, §3

human A2B receptor = biological target: T4, human A2B receptor (Homo sapiens, UniProt P29275); experiment: cAMP (HTRF) functional assay, recombinant HEK293 cells expressing human A2B receptor, agonist NECA
T4 construct: expressed in transfected cells; host or cells: HEK293
T4 sequence (P29275 1-332): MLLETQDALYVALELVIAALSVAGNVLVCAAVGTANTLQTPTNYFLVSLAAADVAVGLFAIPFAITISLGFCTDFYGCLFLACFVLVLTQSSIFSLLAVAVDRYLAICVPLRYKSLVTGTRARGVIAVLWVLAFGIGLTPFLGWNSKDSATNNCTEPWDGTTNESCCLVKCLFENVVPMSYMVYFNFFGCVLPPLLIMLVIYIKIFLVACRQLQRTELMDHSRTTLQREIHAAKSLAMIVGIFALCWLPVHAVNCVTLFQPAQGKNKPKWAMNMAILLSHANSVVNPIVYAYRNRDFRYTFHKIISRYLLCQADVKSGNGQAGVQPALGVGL
Method: as §1, §3

SMILES | IC50 (human A3 receptor) | IC50 (human A1 receptor) | IC50 (human A2A receptor) | IC50 (human A2B receptor)
COc1ncc(N2CCOCC2)c2sc(NC(=O)N3CCC4(CCOC4)C3)nc12 (stereo not drawn) [compound 9, 2-Oxa-7-aza-spiro[4.4]nonane-7-carboxylic acid (4-methoxy-7-morpholin-4-yl-thiazolo[4,5-c]pyridin-2-yl)-amide] | > 1000 nM | > 1000 nM | < 10 nM | < 1000 nM
COc1ncc(N2CCOCC2)c2sc(NC(=O)c3ccc(C(=O)N(C)C)cc3)nc12 [compound 15, N-(4-Methoxy-7-morpholin-4-yl-thiazolo[4,5-c]pyridin-2-yl)-N′,N′-dimethyl-terephthalamide] | > 1000 nM | > 1000 nM | < 10 nM | < 100 nM
COc1ncc(N2CCOCC2)c2sc(NC(=O)N3CC[C@]4(CCOC4)C3)nc12 [compound 17, (5S)-N-[4-methoxy-7-(morpholin-4-yl)-[1,3]thiazolo[4,5-c]pyridin-2-yl]-2-oxa-7-azaspiro[4.4]nonane-7-carboxamide] | > 1000 nM | > 1000 nM | < 10 nM | < 1000 nM
COc1ncc(N2CCOCC2)c2sc(NC(=O)N3CC[C@@]4(CCOC4)C3)nc12 [compound 18, (5R)-N-[4-methoxy-7-(morpholin-4-yl)-[1,3]thiazolo[4,5-c]pyridin-2-yl]-2-oxa-7-azaspiro[4.4]nonane-7-carboxamide] | > 1000 nM | > 1000 nM | < 10 nM | < 1000 nM
COc1ncc(-c2cnn(C)c2)c2sc(NC(=O)c3cnc(C)s3)nc12 [compound 131, 2-Methyl-thiazole-5-carboxylic acid [4-methoxy-7-(1-methyl-1H-pyrazol-4-yl)-thiazolo[4,5-c]pyridin-2-yl]-amide] | > 1000 nM |  | < 10 nM | < 100 nM
COc1ncc(-c2cccnc2)c2sc(NC(=O)c3ccc(C(=O)N(C)C)cc3)nc12 [compound 218, N-(4-Methoxy-7-pyridin-3-yl-thiazolo[4,5-c]pyridin-2-yl)-N′,N′-dimethyl-terephthalamide] | > 1000 nM |  | < 10 nM | < 100 nM
COc1nc(C)c(-c2ccccc2)c2sc(NC(=O)N3CCC4(CCOCC4)C3)nc12 [compound 223, 8-Oxa-2-aza-spiro[4.5]decane-2-carboxylic acid (4-methoxy-6-methyl-7-phenyl-thiazolo[4,5-c]pyridin-2-yl)-amide] | > 1000 nM |  | < 10 nM | < 100 nM
COCCOc1cccc(-c2cnc(OC)c3nc(NC(=O)N4CCC5(CCOCC5)C4)sc23)c1 [compound 225, 8-Oxa-2-aza-spiro[4.5]decane-2-carboxylic acid (4-methoxy-7-[3-(2-methoxy-ethoxy)-phenyl]-thiazolo[4,5-c]pyridin-2-yl}-amide] | > 1000 nM |  | < 10 nM | < 100 nM
COc1nc(F)c(N2CCOCC2)c2sc(NC(=O)c3ccc(N4C(=O)CCC4=O)cc3)nc12 [compound 226, 4-(2,5-Dioxo-pyrrolidin-1-yl)-N-(6-fluoro-4-methoxy-7-morpholin-4-yl-thiazolo[4,5-c]pyridin-2-yl)-benzamide] | > 1000 nM |  | < 10 nM | < 10 nM
COc1ncc(-c2ccccc2)c2sc(NC(=O)c3ccc(C(=O)N(C)CCO)cc3)nc12 [compound 227, N-(2-Hydroxy-ethyl)-N′-(4-methoxy-7-phenyl-thiazolo[4,5-c]pyridin-2-yl)-N-methyl-terephthalamide] | > 1000 nM |  | < 10 nM | < 10 nM

The next lines start with the values.

IC50 (human A3 receptor) | IC50 (human A1 receptor) | IC50 (human A2A receptor) | IC50 (human A2B receptor) | SMILES
< 1000 nM | < 1000 nM | < 100 nM | < 100 nM | COc1ncc(-c2ccccc2)c2sc(NC(=O)[C@H]3C[C@@H]3OC)nc12 (racemic) [compound 202, (1S,2S)-2-methoxy-N-{4-methoxy-7-phenyl-[1,3]thiazolo[4,5-c]pyridin-2-yl}cyclopropane-1-carboxamide]
< 1000 nM | > 1000 nM | < 10 nM | < 1000 nM | COCc1ccc(C(=O)Nc2nc3c(OC)ncc(N4CCOCC4)c3s2)cc1 [compound 3, 4-Methoxymethyl-N-(4-methoxy-7-morpholin-4-yl-thiazolo[4,5-c]pyridin-2-yl)-benzamide]
> 1000 nM | < 1000 nM | < 100 nM | < 100 nM | COc1ncc(N2CCOCC2)c2sc(NC(=O)N3CCC(O)(Cc4ccccc4)CC3)nc12 [compound 7, 4-benzyl-4-hydroxy-N-[4-methoxy-7-(morpholin-4-yl)-[1,3]thiazolo[4,5-c]pyridin-2-yl]piperidine-1-carboxamide]
< 1000 nM | < 1000 nM | < 10 nM | < 1000 nM | COCc1ccc(C(=O)Nc2nc3c(OC)ncc(-c4cnn(C)c4)c3s2)cc1 [compound 14]
< 1000 nM | < 1000 nM | < 10 nM | < 100 nM | COc1ncc(-c2cnn(C)c2)c2sc(NC(=O)N3CCC(C)(O)CC3)nc12 [compound 21, 4-Hydroxy-4-methyl-piperidine-1-carboxylic acid [4-methoxy-7-(1-methyl-1H-pyrazol-4-yl)-thiazolo[4,5-c]pyridin-2-yl]-amide]
< 1000 nM |  | < 10 nM | < 10 nM | COc1nc(F)c(N2CCOCC2)c2sc(NC(=O)c3cnn(C)c3)nc12 [compound 165, 1-Methyl-1H-pyrazole-4-carboxylic acid (6-fluoro-4-methoxy-7-morpholin-4-yl-thiazolo[4,5-c]pyridin-2-yl)-amide]
< 1000 nM |  | < 10 nM | < 100 nM | COc1nc(Br)c(N2CCOCC2)c2sc(NC(=O)c3cnn(C)c3)nc12 [compound 178, 1-Methyl-1H-pyrazole-4-carboxylic acid (6-bromo-4-methoxy-7-morpholin-4-yl-thiazolo[4,5-c]pyridin-2-yl)-amide]
< 1000 nM |  | < 10 nM | < 10 nM | COc1ncc(-c2ccccc2)c2sc(NC(=O)c3cnn(C)c3)nc12 [compound 188, 1-Methyl-1H-pyrazole-4-carboxylic acid (4-methoxy-7-phenyl-thiazolo[4,5-c]pyridin-2-yl)-amide]
< 1000 nM |  | < 10 nM | < 100 nM | COc1nc(C#N)c(N2CCOCC2)c2sc(NC(=O)c3cnn(C)c3)nc12 [compound 217, 1-Methyl-1H-pyrazole-4-carboxylic acid (6-cyano-4-methoxy-7-morpholin-4-yl-thiazolo[4,5-c]pyridin-2-yl)-amide]
< 1000 nM |  | < 10 nM | < 100 nM | COc1nc(Cl)c(N2CCOCC2)c2sc(NC(=O)c3cnn(C)c3)nc12 [compound 221, 1-Methyl-1H-pyrazole-4-carboxylic acid (6-chloro-4-methoxy-7-morpholin-4-yl-thiazolo[4,5-c]pyridin-2-yl)-amide]
< 1000 nM |  | < 10 nM | < 100 nM | COCCOc1cccc(-c2cnc(OC)c3nc(NC(=O)c4ccc(C(=O)N(C)C)cc4)sc23)c1 [compound 224, N-{4-Methoxy-7-[3-(2-methoxy-ethoxy)-phenyl]-thiazolo[4,5-c]pyridin-2-yl}-N′,N′-dimethyl-terephthalamide]
< 1000 nM |  | < 10 nM | < 100 nM | COc1ncc(-c2ccccc2)c2sc(NC(=O)c3ccc(C(=O)NCCO)cc3)nc12 [compound 228, N-(2-Hydroxy-ethyl)-N′-(4-methoxy-7-phenyl-thiazolo[4,5-c]pyridin-2-yl)-terephthalamide]
< 1000 nM |  | < 10 nM | < 100 nM | COc1ncc(-c2ccccc2)c2sc(NC(=O)c3ccc(C(=O)NCCN(C)C)cc3)nc12 [compound 230, N-(2-Dimethylamino-ethyl)-N′-(4-methoxy-7-phenyl-thiazolo[4,5-c]pyridin-2-yl)-terephthalamide]
